Measured values published in patent US20090068143A1, “ORALLY EFFECTIVE C[…]” (priority 2005, published 2009).
pIC50: −log10 of the molar value.

Tests used:
iNOS = iNOS protein expression in activated macrophages (western blot); format: cell-based, mouse; settings: 1, 5 and 10 μM, 24 hrs after LPS stimulation
Method: RAW 264.7 macrophages, a mouse cell line (ATCC # TIB 71), were grown in Dulbecco's modified Eagle's medium (DMEM) with 4 mM L-glutamine adjusted to contain 1.5 g/L sodium bicarbonate, 4.5 g/L glucose, and 10% heat inactivated fetal bovine serum. Cells were grown in tissue culture flasks and seeded at appropriate density into 6 wells tissue culture plates. Four million Raw cells in half a milliliter were stimulated with 1 μg/ml Lipopolysaccharide E. coli 055:B5 (DIFCO Laboratories). The mouse macrophages were pre-treated for one hour with controls or 10 μM of test compounds, and later on activated with LPS. RNA samples were extracted from the cells 3 hrs after activation and iNOS gene expression levels were analyzed by real-time RT-PCR as previously described. For western blot analysis, compounds were tested at 1, 5 and 10 μM and cells were harvested 24 hrs after LPS stimulation. Supernatant were collected and NO secretion was analyzed using ELISA. […]
To assess correlation between gene expression and protein expression, protein extracts were prepared from the various treated activated macrophages. […] Primary antibodies against cyclophilin A were used as control (Upstate, Cat# 07-313), and the amount of iNOS was assessed using NOS2 (C11) Santa Cruz antibodies (Cat# SC-7271) were hybridized for 2 hours at room temperature. […]

CB2 receptor = CB2 receptor (Homo sapiens, UniProt P34972); assay: CB2 binding assay
inflammatory pain = assay: Inflammatory pain and paw edema, λ carrageenan; format: in vivo, Sprague Dawley rats; settings: for ΔLT between hind paws, thermal stimulus: 3 hours; for reduction of delta force between paws, tactile stimulus: vehicle 31 g
Method: Male Sprague Dawley rats (average body weight 200 g, Harlan, Israel) were transiently sedated by placement on dry ice for the duration of the injections. Rats were injected subcutaneously, in the subplantar region of one (right) paw with 0.1 ml of 2% w/v λ Carrageenan in sterile saline. […] Test compounds were administered p.o. by oral gavage immediately after the carrageenan injection as pretreatment. Vehicle (PB) treated animals were used as controls. Before induction of inflammatory pain and three hours after injection, the animals reactions to pain stimuli were tested in two systems. The first stimulus was thermal and assessed by the Plantar Test according to Hargreaves, using Ugo Basile Model 7370. The scale was set to an intensity of 50 arbitrary units. The latency time till the animal lift a paw as a reaction to the thermal stimulus was recorded for both the inflamed and non-inflamed hind paws. The second stimulus was mechanical (tactile) and assessed using a Dynamic Plantar Sesthesiomether (Ugo Basile Model 73400-002). […] Finally, the impact on paw edema was assessed. Paw thickness is measured using a dial thickness gauge (Spring-dial, constant low pressure gauge, Mitutoyo, TG/L-1, 0.00 mm) and paw volume is measured using a plethysmometer (model #7150, Ugo Basile, Italy). At the end of the study, animals were euthanized with an i.p. injection of 100 mg/kg pentobarbitone.
The results are measured as the differences between the two hind paws at time 0 and 3 hours both as ALT, for the latency time in the thermal part of the study, and as ΔForce, for the mechanical part of the study. The paw volume is expressed as percent from vehicle treated animals. Results are expressed as mean±SEM for each treatment group and the differences among those groups are analyzed by analysis of variance (ANOVA) followed by post-hoc Tukey's test. A value of p<0.05 was considered to be statistically significant and is indicated on the figure by an asterisk over the relevant treatment group.

CB2 receptor, sequence (P34972 whole entry): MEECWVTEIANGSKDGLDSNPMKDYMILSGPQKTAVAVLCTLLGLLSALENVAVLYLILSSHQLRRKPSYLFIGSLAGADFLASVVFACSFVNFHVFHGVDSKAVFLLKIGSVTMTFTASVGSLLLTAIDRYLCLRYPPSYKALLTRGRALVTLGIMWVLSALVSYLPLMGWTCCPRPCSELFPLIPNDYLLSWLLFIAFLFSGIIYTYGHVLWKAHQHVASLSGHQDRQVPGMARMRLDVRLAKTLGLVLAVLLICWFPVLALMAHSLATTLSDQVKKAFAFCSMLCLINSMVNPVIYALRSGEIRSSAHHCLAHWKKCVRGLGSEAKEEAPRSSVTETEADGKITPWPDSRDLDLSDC

**Q.** Which “iNOS protein band (western blot)” value (iNOS) does the source give for CCCCCCC(C)(C)c1cc(O)c([C@H]2CC(=O)C3CC2C3(C)C)c(OC(=O)/C=C/C(=O)O)c1 (single isomer, unassigned; (-)) [Compound 18F, (−)-4-{4-[1,1-Dimethylheptyl]-2-fumarate-6-hydroxy-phenyl}-6,6-dimethyl-bicyclo[3.1.1]heptan-2-one] here?
**A.** clear dose dependent disappearance of iNOS protein band

**Q.** And the pIC50 (CB2 receptor)?
**A.** 8.05

**Q.** What about the “decrease in paw volume” value (inflammatory pain; 10 mg/kg p.o.) of the same molecule?
**A.** 6%

**Q.** What about the “percent reduction of delta force, tactile stimulus” value (inflammatory pain; 10 mg/kg p.o.) of the same molecule?
**A.** 23%

**Q.** And the “reduction of ΔLT, thermal stimulus” value (inflammatory pain; 10 mg/kg p.o.)?
**A.** no reduction

**Q.** And the “ΔLT between hind paws, thermal stimulus” value (inflammatory pain; 10 mg/kg p.o., vehicle about 7.5)?
**A.** 7.5 s

**Q.** And the “decrease in paw volume” value (inflammatory pain; 20 mg/kg p.o.)?
**A.** 18%

**Q.** What about the “paw volume, percent of vehicle” value (inflammatory pain; 20 mg/kg p.o.) of the same molecule?
**A.** 82%

**Q.** What about the “reduction of ΔLT, thermal stimulus” value (inflammatory pain; 20 mg/kg p.o.) of the same molecule?
**A.** 69%

**Q.** And the “ΔLT between hind paws, thermal stimulus” value (inflammatory pain; 20 mg/kg p.o.)?
**A.** 2.3 s

**Q.** What about the “reduction of delta force between paws, tactile stimulus” value (inflammatory pain; 20 mg/kg p.o.) of the same molecule?
**A.** 18 g

**Q.** And the “reduction of ΔLT, thermal stimulus” value (inflammatory pain; 30 mg/kg p.o.)?
**A.** 88%

**Q.** What about the “ΔLT between hind paws, thermal stimulus” value (inflammatory pain; 30 mg/kg p.o.) of the same molecule?
**A.** 0.9 s

**Q.** And the “decrease in paw volume” value (inflammatory pain; 30 mg/kg p.o., significant)?
**A.** 52%

**Q.** What about the “reduction of delta force between paws, tactile stimulus” value (inflammatory pain; 30 mg/kg p.o.) of the same molecule?
**A.** 19 g

**Q.** And the “percent reduction of delta force, tactile stimulus” value (inflammatory pain; 20 and 30 mg/kg p.o.)?
**A.** about 60%

**Q.** And the “reduction in Δforce, mechanical stimulus” value (inflammatory pain; single dose of 20 mg/kg p.o.)?
**A.** 58%
